Test results reported in patent US9868705B2, “Tetra-aryl cyclobutane inhibitors of androgen receptor action for the treatment of hormone refractory cancer” (The Board of Trustees of the University of Illinois, priority 2013, dated 2018).
Substitutions are numbered along the chain they refer to. Where two headings read alike, the source gives them in different places.

Experiments:
T877A (LNCaP) AR = target: T1, T877A (LNCaP) AR (Homo sapiens, UniProt P10275, T878A); assay: MMTV-luciferase transcription assay in CV-1 cells, T877A AR; format: cell-based
T1 construct: expressed in transfected cells; host or cells: CV-1
T1 sequence (P10275 1-920 T878A): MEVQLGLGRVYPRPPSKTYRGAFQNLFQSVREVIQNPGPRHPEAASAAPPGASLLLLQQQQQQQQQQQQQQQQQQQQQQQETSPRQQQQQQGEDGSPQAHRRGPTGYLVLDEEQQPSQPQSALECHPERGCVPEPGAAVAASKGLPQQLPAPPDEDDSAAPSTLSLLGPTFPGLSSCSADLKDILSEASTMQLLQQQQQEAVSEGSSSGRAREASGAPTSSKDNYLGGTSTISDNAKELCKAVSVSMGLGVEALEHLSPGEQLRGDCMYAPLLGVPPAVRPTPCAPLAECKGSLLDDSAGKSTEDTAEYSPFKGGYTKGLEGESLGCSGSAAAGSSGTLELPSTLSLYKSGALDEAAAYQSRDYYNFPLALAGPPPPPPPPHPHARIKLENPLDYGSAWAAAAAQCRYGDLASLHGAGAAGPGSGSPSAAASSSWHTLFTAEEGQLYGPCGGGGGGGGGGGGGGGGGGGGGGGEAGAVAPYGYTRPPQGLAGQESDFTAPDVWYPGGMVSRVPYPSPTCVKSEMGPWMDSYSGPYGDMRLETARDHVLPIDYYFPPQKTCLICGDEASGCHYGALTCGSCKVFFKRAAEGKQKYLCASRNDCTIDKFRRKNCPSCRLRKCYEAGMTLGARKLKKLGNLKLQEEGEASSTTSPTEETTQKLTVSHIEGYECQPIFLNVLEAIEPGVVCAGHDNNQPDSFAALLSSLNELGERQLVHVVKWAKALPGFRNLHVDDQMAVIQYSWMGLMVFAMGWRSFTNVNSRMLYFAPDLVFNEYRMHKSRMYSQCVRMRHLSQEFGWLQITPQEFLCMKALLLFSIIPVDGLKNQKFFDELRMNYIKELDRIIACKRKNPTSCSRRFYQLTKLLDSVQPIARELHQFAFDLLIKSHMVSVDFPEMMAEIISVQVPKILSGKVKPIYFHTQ
Description: (§1) These compounds were screened using an AR-responsive MMTV transcription assay in CV-1 cells, utilizing both wild type and T877A (LNCaP) AR. […]

[1] = target: T2, T877A mutant androgen receptor (Homo sapiens, UniProt P10275, T878A); assay: FKBP51 endogenous gene expression in LNCaP-XIP cells; format: cell-based
T2 construct: endogenous in cells; host or cells: LNCaP-XIP
T2 sequence (P10275 1-920 T878A): T1 sequence (P10275 1-920 T878A)
Description: FIG. 44 depicts data for dose-dependent inhibition of androgen receptor-dependent endogenous gene expression of FKBP51 by Compound 1 of Example IV in LNCaP cells producing exclusively T877A mutant androgen receptor (LNCaP-XIP) and LNCaP cells transfected with wild type androgen receptor (LNCaP-androgen receptor, ratio of wild type to T877A receptor is ca. 3:1).
To more fully characterize the selectivity of compound 1 for the mutant receptor, we measured its inhibitory potential against the WT and T877A mutant receptor in an AR-dependent luciferase transcription assay in CV-1 cells (FIGS. 43A and B).

AR = target: T3, AR (Homo sapiens, UniProt P10275); assay: AR relative binding affinity (RBA)
T3 sequence (P10275 1-920): T1 sequence (P10275 1-920 T878A) with A878T

[2] = test system: LNCaP and VCaP cell lines; assay: General toxicity screen in LNCaP and VCaP cell lines; format: cell-based, human; conditions: at concentrations as high as 25 μM
LNCaP cells = assay: LNCaP cell proliferation
wild type AR = target: T4, wild type AR (Homo sapiens, UniProt P10275); assay: MMTV-luciferase transcription assay in CV-1 cells, wild type AR; format: cell-based; conditions: wild type AR; values given in μM; read-out: MMTV transcription assay in CV-1 cells WT (IC50)
T4 construct: expressed in transfected cells; host or cells: CV-1
T4 sequence (P10275 1-920): T1 sequence (P10275 1-920 T878A) with A878T
Description: as §1

- increase in potency for T877A mutant over WT (T877A (LNCaP) AR; AR-dependent luciferase transcription assay in CV-1 cells): approximately 10 fold
- IC50 (T877A (LNCaP) AR; CV1 transient transfection, MMTV-Luciferase reporter, read-out: IC50 T877A): 0.81 µM
- IC50 (T877A (LNCaP) AR; T877A AR, values given in μM, read-out: MMTV transcription assay in CV-1 cells T877A (IC50)): 1.1 µM
- concentration at which maximal inhibition is obtained ([1]; FKBP51 expression, T877A mutant receptor): 2 µM
- inhibition of FKBP51 gene expression ([1]; LNCaP-XIP, 2 μM): complete inhibition
- AR RBA (AR): 0.056%
- IC50 (wild type AR): 18 µM
Compound: COc1cc([C@H]2[C@H](c3ccccc3)[C@H](c3cc(OC)nc(OC)n3)[C@H]2c2ccccc2)nc(OC)n1 [CB-22]
- toxicity [2]: complete lack of toxicity
- more potent in LNCaP cells than in VCaP cells (anti-proliferative activity) (LNCaP cells; LNCaP vs VCaP): 10-15 fold
- inhibition of LNCaP cell proliferation (LNCaP cells; androgen-stimulated LNCaP cells): slow cell-growth in a dose-dependent manner
